Experiments:
[1] = HNO production via N2O quantification (GC headspace), PBS buffer pH 7.4; type: physicochemical; conditions: pH 7.4, 37° C. under argon, relative to Angeli's salt
Experimental: (§1) Nitrous oxide is produced via the dimerization and dehydration of HNO, and is the most common marker for HNO production (Fukuto, J. M. et al., Chem. Res. Toxicol. 2005, 18, 790-801).
(§2) The ability of compounds to donate HNO is assessed. N2O results are reported relative to Angeli's salt. All decompositions are carried out at 37° C. under argon.

esterase = assay: HNO production via N2O quantification (GC headspace), PBS buffer pH 7.4 with added esterase; type: in vitro ADME; conditions: pH 7.4 with 2-4 mg added esterase, 37° C. under argon, relative to Angeli's salt, N2O measured at 1 hr
Experimental: as §1, §2

| Compound | % N2O pH 7.4 ([1]; N2O measured at 5 hr) | % N2O esterase (esterase) | % N2O pH 7.4 ([1]; no measurement time printed) [%] |
| --- | --- | --- | --- |
| CC(=O)ONS(=O)(=O)c1ccccc1Br [Compound 2, N-(acetyloxy)-2-bromobenzenesulfonamide] | <3 (5 hr) % | 53 (1 hr) % |  |
| CC(=O)ONS(=O)(=O)c1c(Cl)cccc1Cl [Compound 3, N-acetyloxy-2,6-dichlorobenzenesulfonamide] | <3 (5 hr) % | 56 (1 hr) % |  |
| O=C(c1ccccc1)N(O)S(=O)(=O)c1ccccc1 [Compound 15, N-hydroxy-N-benzoyl- benzenesulfonamide] |  |  | 19 |
| CC(C)(C)C(=O)N(O)S(=O)(=O)c1c(Cl)cccc1Cl [Compound 16, N-hydroxy-N-trimethylacetyl-2,6-dichlorobenzenesulfonamide] |  |  | 41 |

Source: US20160046570A1, “N-ACYLOXYSULFONAMIDE AND N-HYDROXY-N-ACYLSULFONAMIDE DERIVATIVES” (The Johns Hopkins University, priority 2009, published 2016)
